{"source": "paper PMC8063472", "about": "“Pharmacokinetics of five phthalides in volatile oil of Ligusticum sinense Oliv.cv. Chaxiong, and comparison study on physicochemistry and pharmacokinetics after being formulated into solid dispersion and inclusion compound” (BMC Complementary Medicine and Therapies, 2021)", "key": {"[1]": {"assay": "Pharmacokinetic study in rats (plasma LC-MS/MS) after iv or oral VOC, oral VOC-P188 or oral VOC-β-CD", "assay_type": "in vivo, Sprague Dawley rats", "conditions": "for t1/2α / AUC(0-t) / MRT last / Tmax / half-life / Cmax: rat plasma, n = 6; for F2 (relative bioavailability) / bioavailability: rats; for AUC(0-t) / MRT last / Tmax / half-life / Cmax / bioavailability: male, Sprague-Dawley, rat, plasma; for MRT last: read-out: MRT0-t; for Tmax: read-out: Tmax; for half-life: read-out: t1/2β (converted)", "method": "The intravenous injection solution was prepared by dissolving 0.15 g of VOC in 25 ml water containing 3 ml 10% Tween-80 as solubilizer. The oral solution was prepared by dissolving 0.35 g of VOC in 25 ml normal saline containing 3 ml 10% Tween-80 as solubilizer. The VOC-P188 solution was prepared by mixing VOC-P188 5 g in 25 ml water with magnetic stirring apparatus. The VOC-β-CD solution was prepared by mixing VOC-β-CD 3.5 g in 25 ml water with magnetic stirring apparatus.\nTwenty-four male SD rats (220 ~ 250 g) were randomly divided into four groups, 6 in each group. After fasting for 12 h before administration, the rats in group 1 were given VOC by tail vein injection at a dose of 30 mg/Kg, the rats at second group were oral administration of VOC solution, the dosage was 120 mg/Kg based on the mass of VOC. The rats at groups 3 and 4 were given VOC-P188 and VOC-β-CD, respectively.\nBlood samples (0.3 ml) were collected from the eyes at 0.08, 0.17, 0.33, 0.5, 1, 1.5, 2, 4, 6, 8, 12 and 24 h after administration, and they were immediately transferred into a heparinized Eppendorf (EP) tube. The blood samples were then centrifuged at 13,000 r/min for 10 min. The plasma samples were stored at − 80 °C for later analysis.\nThe thawed plasma sample (0.1 ml) was transferred to another EP tube and 20 μl of DL, 50 μl of 2% formic acid and 500 μl of methanol were added. The mixture was vortexed for 2 min, and centrifuged at 13000 r/min for 10 min. The supernatant was transferred into a clean EP tube, and evaporated to dryness under a stream of nitrogen at 40 °C. The residue was dissolved in 100 μl of methanol. The supernatant was injected into the HPLC system.\nAn HPLC system consisting of a solvent-delivery system LC-30 AD, an autosampler SIL-30 AC, a column oven CTO-30 AC, a solvent degasser DGU-20A3, and a controller CBM-20A from […] was used in the study. Separation was conducted using a Shim-pack GIST C18-AQ HP column (2.1 mm × 100 mm, 3 μm). The column oven was maintained at 35 °C. The mobile phase was 0.1% formic acid in water as mobile phase A and acetonitrile as mobile phase B. The linear gradient elution program was set according to preliminary tests: 45–60% B, 0–2 min; 60–65% B, 2–6 min; 65–95% B, 6–7 min; 95–45% B, 7–9 min and 45% B, 9–10 min, with the flow rate kept at 0.3 ml/min. The injection volume was set at 2 μl.\nThe MS analysis was performed on a 4500 QTRAP™ system from Applied Biosystems (AB Sciex) equipped with Turbo V sources and Turbo Ion Spray™ (TIS) interface. Electrospray ionization was performed in positive mode. Ion source: electrospray ion source (ESI source); detection method: multiple reaction monitoring (MRM); ion source temperature: 500 °C; desolvent gas temperature: 550 °C; desolvent gas flow rate: 800 l/h. The detection ion pair, retention time, declustering voltage and collision energy of each index component and internal standard were shown in Table 2.\nThe plasma SA, NBP, NOL, ZL and BP concentrations were evaluated using the equation from the standard curves that were run with each batch of samples. The plasma concentration-time data were analyzed with the Drug and Statistics 2.0 software package to determine the pharmacokinetic parameters. The observed Cmax value was obtained from the observed data and the observed AUC0 → t value was calculated using the trapezoidal rule. The absolute bioavailability of VOC and the relative bioavailability of VOC-P188 and VOC-β-CD were calculated, the formula for calculating absolute bioavailability (F1) and relative bioavailability (F2): F1=AUCpo×Div/AUCiv×Dpo×100% […]\nWhere AUC is the area under the temporal curve of blood drug concentration (μg/l*h), D is administration dosage (mg/kg); the subscripts iv and po are injection and oral administration, respectively; the subscript R is reference drug (VOC); the subscript T is solid dispersion or inclusion compound."}, "[2]": {"assay": "Stability test of VOC-P188 and VOC-β-CD (temperature, illumination)", "assay_type": "physicochemical"}, "[3]": {"conditions": "VOC-P188 solid dispersion po vs VOC po"}, "[4]": {"conditions": "VOC-β-CD inclusion compound po vs VOC po"}, "[5]": {"conditions": "iv, 30 mg/kg, VOC iv (tail vein) 30 mg/kg"}, "[6]": {"conditions": "po, 120 mg/kg, VOC po 120 mg/kg"}, "[7]": {"conditions": "po, 120 mg/kg, VOC po vs VOC iv, read-out: F1 (absolute bioavailability)"}, "[8]": {"conditions": "po, VOC-P188 and VOC-β-CD po, read-out: bioavailability in the two preparations"}, "[9]": {"conditions": "po, VOC-P188 solid dispersion po"}, "[10]": {"conditions": "po, VOC-β-CD inclusion compound po"}}, "note": "Where two headings read alike, the source gives them in different places."}
{"smiles": "CCCC[C@@H]1OC(=O)C2=CCCC[C@H]21", "note": "[NOL, Neocnidilide]", "values": [{"measurement": "t1/2α", "setting": "[1]; VOC iv 30 mg/kg", "value": "0.04 ± 0.04", "unit": "h"}, {"measurement": "t1/2α", "setting": "[1]; VOC po 120 mg/kg", "value": "0.46 ± 0.67", "unit": "h"}, {"measurement": "F2 (relative bioavailability)", "setting": "[1]; [3]", "value": 258.18, "unit": "%"}, {"measurement": "t1/2α", "setting": "[1]; VOC-P188 solid dispersion po", "value": "4.21 ± 4.29^* h"}, {"measurement": "F2 (relative bioavailability)", "setting": "[1]; [4]", "value": 218.01, "unit": "%"}, {"measurement": "t1/2α", "setting": "[1]; VOC-β-CD inclusion compound po", "value": "3.21 ± 2.44", "unit": "h"}, {"measurement": "AUC(0-t)", "setting": "[1]; iv, 30 mg/kg, VOC iv 30 mg/kg", "value": "505 ± 152", "unit": "ng·h/mL"}, {"measurement": "MRT last", "setting": "[1]; iv, 30 mg/kg, VOC iv 30 mg/kg", "value": "0.79 ± 0.17", "unit": "h"}, {"measurement": "Tmax", "setting": "[1]; iv, 30 mg/kg, VOC iv 30 mg/kg", "value": 0.083, "unit": "h"}, {"measurement": "half-life", "setting": "[1]; iv, 30 mg/kg, VOC iv 30 mg/kg", "value": "0.3 ± 0.11", "unit": "h"}, {"measurement": "Cmax", "setting": "[1]; [5]", "value": "1380 ± 335", "unit": "ng/mL"}, {"measurement": "AUC(0-t)", "setting": "[1]; [6]", "value": "442 ± 45.2", "unit": "ng·h/mL"}, {"measurement": "Cmax", "setting": "[1]; [6]", "value": "223 ± 71.3", "unit": "ng/mL"}, {"measurement": "MRT last", "setting": "[1]; [6]", "value": "3.42 ± 0.57", "unit": "h"}, {"measurement": "Tmax", "setting": "[1]; [6]", "value": "0.18 ± 0.12", "unit": "h"}, {"measurement": "half-life", "setting": "[1]; [6]", "value": "3.1 ± 2.18", "unit": "h"}, {"measurement": "bioavailability", "setting": "[1]; [7]", "value": "< 25", "unit": "%"}, {"measurement": "bioavailability", "setting": "[1]; [8]", "value": "< 50", "unit": "%"}, {"measurement": "AUC(0-t)", "setting": "[1]; [9]", "value": "1140 ± 63.9", "unit": "ng·h/mL"}, {"measurement": "Cmax", "setting": "[1]; [9]", "value": "244 ± 131", "unit": "ng/mL"}, {"measurement": "MRT last", "setting": "[1]; [9]", "value": "7.61 ± 0.57", "unit": "h"}, {"measurement": "Tmax", "setting": "[1]; [9]", "value": "0.42 ± 0.45", "unit": "h"}, {"measurement": "half-life", "setting": "[1]; [9]", "value": "8.84 ± 1.84", "unit": "h"}, {"measurement": "AUC(0-t)", "setting": "[1]; [10]", "value": "945 ± 85", "unit": "ng·h/mL"}, {"measurement": "Cmax", "setting": "[1]; [10]", "value": "134 ± 24.3", "unit": "ng/mL"}, {"measurement": "MRT last", "setting": "[1]; [10]", "value": "8.17 ± 0.55", "unit": "h"}, {"measurement": "Tmax", "setting": "[1]; [10]", "value": "0.67 ± 0.26", "unit": "h"}, {"measurement": "half-life", "setting": "[1]; [10]", "value": "9.77 ± 2.71", "unit": "h"}]}
{"smiles": "CCCCC1OC(=O)C2=C1CCC=C2", "note": "(stereo not shown) [SA, senkyunolide A]", "values": [{"measurement": "t1/2α", "setting": "[1]; VOC iv 30 mg/kg", "value": "0.09 ± 0.05", "unit": "h"}, {"measurement": "t1/2α", "setting": "[1]; VOC po 120 mg/kg", "value": "1.31 ± 1.58", "unit": "h"}, {"measurement": "F2 (relative bioavailability)", "setting": "[1]; [3]", "value": 185.82, "unit": "%"}, {"measurement": "t1/2α", "setting": "[1]; VOC-P188 solid dispersion po", "value": "1.50 ± 1.59", "unit": "h"}, {"measurement": "F2 (relative bioavailability)", "setting": "[1]; [4]", "value": 138.69, "unit": "%"}, {"measurement": "t1/2α", "setting": "[1]; VOC-β-CD inclusion compound po", "value": "2.34 ± 1.24", "unit": "h"}, {"measurement": "AUC(0-t)", "setting": "[1]; iv, 30 mg/kg, VOC iv 30 mg/kg", "value": "1370 ± 315", "unit": "ng·h/mL"}, {"measurement": "MRT last", "setting": "[1]; iv, 30 mg/kg, VOC iv 30 mg/kg", "value": "0.72 ± 0.08", "unit": "h"}, {"measurement": "Tmax", "setting": "[1]; iv, 30 mg/kg, VOC iv 30 mg/kg", "value": 0.083, "unit": "h"}, {"measurement": "half-life", "setting": "[1]; iv, 30 mg/kg, VOC iv 30 mg/kg", "value": "0.78 ± 0.66", "unit": "h"}, {"measurement": "Cmax", "setting": "[1]; [5]", "value": "3430 ± 557", "unit": "ng/mL"}, {"measurement": "AUC(0-t)", "setting": "[1]; [6]", "value": "1260 ± 274", "unit": "ng·h/mL"}, {"measurement": "Cmax", "setting": "[1]; [6]", "value": "631 ± 310", "unit": "ng/mL"}, {"measurement": "MRT last", "setting": "[1]; [6]", "value": "4.19 ± 0.49", "unit": "h"}, {"measurement": "Tmax", "setting": "[1]; [6]", "value": "0.19 ± 0.1", "unit": "h"}, {"measurement": "half-life", "setting": "[1]; [6]", "value": "3.79 ± 1.4", "unit": "h"}, {"measurement": "bioavailability", "setting": "[1]; [7]", "value": "< 25", "unit": "%"}, {"measurement": "bioavailability", "setting": "[1]; [8]", "value": "< 50", "unit": "%"}, {"measurement": "AUC(0-t)", "setting": "[1]; [9]", "value": "2360 ± 351", "unit": "ng·h/mL"}, {"measurement": "Cmax", "setting": "[1]; [9]", "value": "701 ± 349", "unit": "ng/mL"}, {"measurement": "MRT last", "setting": "[1]; [9]", "value": "6.45 ± 0.96", "unit": "h"}, {"measurement": "Tmax", "setting": "[1]; [9]", "value": "0.2 ± 0.16", "unit": "h"}, {"measurement": "half-life", "setting": "[1]; [9]", "value": "7.24 ± 2.57", "unit": "h"}, {"measurement": "AUC(0-t)", "setting": "[1]; [10]", "value": "1830 ± 532", "unit": "ng·h/mL"}, {"measurement": "Cmax", "setting": "[1]; [10]", "value": "399 ± 68.3", "unit": "ng/mL"}, {"measurement": "MRT last", "setting": "[1]; [10]", "value": "6.22 ± 1.51", "unit": "h"}, {"measurement": "Tmax", "setting": "[1]; [10]", "value": "0.5 ± 0.26", "unit": "h"}, {"measurement": "half-life", "setting": "[1]; [10]", "value": "2.98 ± 0.57", "unit": "h"}, {"measurement": "content decreased by", "setting": "[2]; in VOC-P188, 60 °C for 10 days", "value": 15.8, "unit": "%"}, {"measurement": "content decreased by", "setting": "[2]; in VOC-β-CD, 60 °C for 10 days", "value": 9.0, "unit": "%"}]}
